{"source": "patent US20220169622A1", "about": "“AMPLIFICATION OF NUCLEIC ACIDS” (Abbott Molecular Inc., priority 2018, published 2022)", "assay_type_in_all_cases": "biochemical", "key": {"HIV-1 target RNA": {"test_system": "HIV-1 target RNA", "experiment": "Prototype HIV-1 assay RT-PCR with 50 copies of target RNA (Example 3)", "conditions": "0.015% (w/w) PROCLIN 950 (0.0015% (w/w) MIT); 50 copies of HIV-1 target RNA; compared to no PROCLIN 950", "protocol": "During the development of embodiments of the technology provided herein, experiments were conducted to test RT-PCR in the presence of MIT in a prototype HIV-1 assay master mix. Prototype HIV-1 assay master mixes comprising 50 copies of HIV-1 target RNA and either 0.015% (w/w) PROCLIN 950 (0.0015% (w/w) MIT) or comprising no PROCLIN 950 were tested by RT-PCR (8 replicates each condition). HIV-specific realtime fluorescence signals from HIV-1 RT-PCR reactions comprising 0 or 0.015% (w/w) PROCLIN 950 are shown in FIG. 3."}, "Chlamydia trachomatis": {"test_system": "Chlamydia trachomatis", "experiment": "Prototype CT/NG assay RT-PCR with 0.1 inclusion forming units (Example 4)", "conditions": "0.015% (w/w) PROCLIN 950 (0.0015% (w/w) MIT); 0.1 inclusion forming units of Chlamydia trachomatis; compared to no PROCLIN 950", "protocol": "During the development of embodiments of the technology provided herein, experiments were conducted to test RT-PCR in the presence of MIT in a prototype CT/NG assay master mix. Prototype CT/NG assay master mixes comprising 0.1 inclusion forming units of Chlamydia trachomatis and either 0.015% (w/w) PROCLIN 950 (0.0015% (w/w) MIT) or comprising no PROCLIN 950 were tested by RT-PCR (8 replicates each condition). CT-specific realtime fluorescence signals from CT/NG RT-PCR reactions comprising 0 or 0.015% (w/w) PROCLIN 950 (0.0015% (w/w) MIT) are shown in FIG. 4. […] Further, the prototype CT/NG assay uses different primer and probe sets than the prototype HIV-1 assay described in Example 3."}, "[1]": {"test_system": "non-specific amplification products", "experiment": "RT-PCR without HIV-1 target RNA after master mix incubation at 2 to 8° C. for 16 hours, EVA Green (Example 2)", "conditions": "0.0015, 0.005, 0.01% (w/w) MIT; master mix incubated at 2 to 8° C. for 16 hours; no HIV-1 target RNA; compared to reactions without MIT", "protocol": "During the development of embodiments of the technology provided herein, experiments were conducted to simulate the preparation of bulk RT-PCR reagents by a commercial manufacturing process. In particular, prototype HIV-1 assay master mixes comprising 0, 0.015, 0.05, and 0.1% (w/w) PROCLIN 950 (corresponding to 0, 0.0015, 0.005, and 0.01% (w/w) MIT concentrations, respectively) were incubated at 2 to 8° C. for 16 hours. RT-PCR was then performed with each master mix in the absence of HIV-1 target RNA (2 replicates per condition). The fluorescent DNA-intercalating dye. EVA Green was included in each reaction to monitor the accumulation of non-specific amplification products. Realtime EVA Green fluorescence signals from RT-PCR reactions comprising 0, 0.015, 0.05, and 0.1% (w/w) PROCLIN 950 are shown in FIG. 2."}, "[2]": {"test_system": "non-specific amplification products", "experiment": "RT-PCR without template, EVA Green monitoring of non-specific amplification products (Example 1)", "conditions": "0.0015, 0.005, 0.01% (w/w) MIT (0.015, 0.05, 0.1% (w/w) PROCLIN 950); no template; compared to reactions without MIT", "source_text": "The primers and probes in the reaction mixtures target HIV-1 nucleic acids. The fluorescent DNA-intercalating dye, EVA Green, was included in each reaction to monitor the accumulation of non-specific amplification products. Realtime EVA Green fluorescence signals from RT-PCR reactions comprising […], 0.05. and 0.1% (w/w) PROCLIN 950 are shown in FIG. 1."}}, "note": "Entries after “also recorded” stand apart in the source; their conditions may differ."}
{"smiles": "Cn1sccc1=O", "note": "[MIT, 2-methyl-4-isothiazolin-3-one]", "values": [{"measurement": "HIV-specific realtime fluorescence signal (RT-PCR performance)", "setting": "HIV-1 target RNA", "value": "enhances RT-PCR performance"}, {"measurement": "CT-specific realtime fluorescence signal (RT-PCR performance)", "setting": "Chlamydia trachomatis", "value": "enhances RT-PCR performance"}, {"measurement": "non-specific product formation (EVA Green signal)", "setting": "[1]", "value": "reduces the accumulation of non-specific product during prolonged storage; also recorded: decreased levels of non-specific product formation"}, {"measurement": "non-specific product formation (EVA Green signal)", "setting": "[2]", "value": "reduces the accumulation of non-specific product; also recorded: decreased levels of non-specific product formation"}]}
